Values of other authors as cited in patent US6376509B2, “Melanocortin receptor agonists” (Merck & Co., Inc., priority 2000, dated 2002).

Assays:
[1] = tested on: erectile dysfunction; conditions: for duration of effect / onset of action: after an oral dose; for share of patients with adequate response: oral, men with erectile dysfunction
[2] = tested on: psychogenic erectile dysfunction

Compound	duration of effect [1]	onset of action [1]	share of patients with adequate response [1]	absorption into the systemic circulation ([2]; in vivo, po)	response rate ([2]; injected intramuscularly or subcutaneously, males with psychogenic erectile dysfunction)	duration of action ([2]; subcutaneous injection)	time to onset of erection ([2]; subcutaneous injection)
Cc1ccc(N(CC2=NCCN2)c2cccc(O)c2)cc1 [phentolamine]	2 h	5 to 30 min	35-40%	–	–	–	–
CCCc1nn(C)c2c(=O)[nH]c(-c3cc(S(=O)(=O)N4CCN(C)CC4)ccc3OCC)nc12 [sildenafil]	about 4 hours	30 to 60 min	about 70%	–	–	–	–
Ac-Nle-c[Asp-His-DPhe-Arg-Trp-Lys]-NH2 [MT-II]	–	–	–	not absorbed into the systemic circulation	75%	approximately 2.5 hours	10 to 20 min
